The structures appear in SMILES notation. Some results are limits rather than exact numbers.

The test system of the first data set is HEK293T cells carrying the ATF4 luciferase reporter. Briefly: ATF4-Luc assay (in vitro model of vanishing white matter disease). Format: cell-based, human. The following applies: Homo sapiens, HEK-293T; HEK293T cells with ATF4 5'-UTR firefly luciferase reporter; 1 μg/mL tunicamycin; 7 hours; One Glo luminescence. The method, then: In order to test exemplary compounds of the invention in a cellular context, a stable VWMD cell line was first constructed. The ATF4 reporter was prepared by fusing the human full-length ATF4 5′-UTR (NCBI Accession No. BC022088.2) in front of the firefly luciferase (FLuc) coding sequence lacking the initiator methionine as described in Sidrauski et al (eLife 2013). The construct was used to produce recombinant retroviruses using standard methods and the resulting viral supernatant was used to transduce HEK293T cells, which were then subsequently selected with puromycin to generate a stable cell line.
HEK293T cells carrying the ATF4 luciferase reporter were plated on polylysine coated 384-well plates (Greiner Bio-one) at 30,000 cells per well. Cells were treated the next day with 1 μg/mL tunicamycin and 200 nM of a compound of Formula (I) for 7 hours. Luminescence was measured using One Glo (Promega) as specified by the manufacturer. Cells were maintained in DMEM with L-glutamine supplemented with 10% heat-inactivated FBS (Gibco) and Antibiotic-Antimycotic solution (Gibco).
Table 2 below summarizes the EC50 data obtained using the ATF4-Luc assay for exemplary compounds of the invention.
As for `O=C(COc1ccc(Cl)c(F)c1)N[C@H]1CC[C@H](N2CCN(c3ccc(C(F)(F)F)cn3)C2=O)CC1` [Compound 132, 2-(4-chloro-3-fluorophenoxy)-N-[(1r,4r)-4-{2-oxo-3-[5-(trifluoromethyl)pyridin-2-yl]imidazolidin-1-yl}cyclohexyl]acetamide], the concentration giving a half-maximal response (EC50) was below 50 nM.

With `O=C(COc1ccc(Cl)c(F)c1)NC12CC(N3CC(c4ccc(Cl)c(F)c4)CC3=O)(C1)C2` (stereo not drawn) [Compound 159, 2-(4-chloro-3-fluorophenoxy)-N-{3-[4-(4-chloro-3-fluorophenyl)-2-oxopyrrolidin-1-yl]bicyclo[1.1.1]pentan-1-yl}acetamide], the EC50 was below 50 nM.

Regarding `O=C(COc1ccc(Cl)c(F)c1)NC12CC(n3ccn(-c4ccc(Cl)cc4)c3=O)(C1)C2` [Compound 160, 2-(4-chloro-3-fluorophenoxy)-N-{3-[3-(4-chlorophenyl)-2-oxo-2,3-dihydro-1H-imidazol-1-yl]bicyclo[1.1.1]pentan-1-yl}acetamide], the concentration for a half-maximal effect (EC50) is below 50 nM.

As to `O=C(COc1ccc(Cl)c(F)c1)NC12CCC(N3CC(c4ccc(Cl)cc4)OC3=O)(CC1)CC2O` (stereo not drawn) [Compound 162, 2-(4-chloro-3-fluorophenoxy)-N-{4-[5-(4-chlorophenyl)-2-oxo-1,3-oxazolidin-3-yl]-2-hydroxybicyclo[2.2.2]octan-1-yl}acetamide], the concentration giving a half-maximal response (EC50) lay in the range of 50 to 250 nM.

In the case of `O=C(COc1ccc(Cl)c(F)c1)NC12CCC(N3CC(c4ccc(Cl)c(F)c4)CC3=O)(CC1)C[C@@H]2O` (stereo partly drawn) [Compound 163, 2-(4-chloro-3-fluorophenoxy)-N-{(2S)-4-[4-(4-chloro-3-fluorophenyl)-2-oxopyrrolidin-1-yl]-2-hydroxybicyclo[2.2.2]octan-1-yl}acetamide], the EC50 is below 50 nM.

Consider `CC1(c2ccc(Cl)cc2)CN=C(C23CC(NC(=O)COc4ccc(Cl)c(F)c4)(C2)C3)O1` (stereo not drawn) [Compound 164, 2-(4-chloro-3-fluorophenoxy)-N-{3-[5-(4-chlorophenyl)-5-methyl-4,5-dihydro-1,3-oxazol-2-yl]bicyclo[1.1.1]pentan-1-yl}acetamide], for which the concentration for a half-maximal effect (EC50) is 250 to 1000 nM.

As to `O=C(COc1ccc(Cl)c(F)c1)NC12CC(N3CC(c4ccc(Cl)c(F)c4)=CC3=O)(C1)C2` [Compound 165, 2-(4-chloro-3-fluorophenoxy)-N-{3-[4-(4-chloro-3-fluorophenyl)-2-oxo-2,5-dihydro-1H-pyrrol-1-yl]bicyclo[1.1.1]pentan-1-yl}acetamide], the half-maximal effective concentration (EC50) was below 50 nM.

For the compound `O=C(NC12CC(N3CC(c4ccc(Cl)c(F)c4)OC3=O)(C1)C2)c1cnc(C(F)F)cn1` (stereo not drawn) [Compound 166, N-{3-[5-(4-chloro-3-fluorophenyl)-2-oxo-1,3-oxazolidin-3-yl]bicyclo[1.1.1]pentan-1-yl}-5-(difluoromethyl)pyrazine-2-carboxamide], the EC50 was above 2000 nM.

As for `O=C(NC12CC(N3CC(c4ccc(Cl)c(F)c4)OC3=O)(C1)C2)c1cc(C(F)F)no1` (stereo not drawn) [Compound 167, N-{3-[5-(4-chloro-3-fluorophenyl)-2-oxo-1,3-oxazolidin-3-yl]bicyclo[1.1.1]pentan-1-yl}-3-(difluoromethyl)-1,2-oxazole-5-carboxamide], the EC50 was above 2000 nM.

`O=C(COc1ccc(Cl)c(F)c1)NC12CC(N3Cc4cc5ccccc5cc4C3=O)(C1)C2` [Compound 168, 2-(4-chloro-3-fluorophenoxy)-N-[3-(1-oxo-1,3-dihydro-2H-benzo[f]isoindol-2-yl)bicyclo[1.1.1]pentan-1-yl]acetamide]: the EC50 lay in the range of 250 to 1000 nM.

For the compound `O=C(COc1ccc(Cl)c(F)c1)NC12CC(N3CC(c4ccc(Cl)cc4)COC3=O)(C1)C2` (stereo not drawn) [Compound 169, 2-(4-chloro-3-fluorophenoxy)-N-{3-[5-(4-chlorophenyl)-2-oxo-1,3-oxazinan-3-yl]bicyclo[1.1.1]pentan-1-yl}acetamide], the EC50 is 250 to 1000 nM.

Test system in the next data set: not given
Experiment: not given
Details: not given
As to `O=C(COc1ccc(Cl)c(F)c1)N[C@H]1CC[C@H](N2CCN(c3ccc(C(F)(F)F)cn3)C2=O)CC1` [Compound 132, 2-(4-chloro-3-fluorophenoxy)-N-[(1r,4r)-4-{2-oxo-3-[5-(trifluoromethyl)pyridin-2-yl]imidazolidin-1-yl}cyclohexyl]acetamide], the melting point worked out at 232 °C.

The values are drawn from US20200347033A1, “MODULATORS OF THE INTEGRATED STRESS PATHWAY” (Calico Life Sciences LLC, priority 2017, published 2020).
